Measured values taken from article PMC8126241, “Active Components from Cassia abbreviata Prevent HIV-1 Entry by Distinct Mechanisms of Action” (International Journal of Molecular Sciences, 2021).

What was measured:
[1] = test system: HIV-1 gp120 / CD4 binding; test: CD4-gp120 interaction assay (ELISA); settings: in-house ELISA
Procedure: Human soluble CD4 (sCD4) was immobilized in a 96-well plate by adding 100 ng sCD4 (R&D Systems, Belgium) in 100 μL PBS per well and incubated at 4 °C. After 24 h, the CD4 coated plate was washed with 1% BSA-PBS and blocked by adding 100μL 5% BSA-PBS per well for 1 h at 4 °C. The coated plate was then washed and incubated with or without drugs for 1 h at 4 °C. After washing, 100 ng HIV-1 gp120 protein (Fitzgerald, Acton, MA, USA) was added into the plate and kept for 1 h at 4 °C. The plate was washed, and anti-HIV-1 gp120 (Aalto Bio Reagents, Dublin, Ireland) (100 ng/100 μL PBS) was added. After 1 h, the plate was washed and anti-sheep HRP (Sigma, Belgium) (100 ng/100 μL PBS) was added. After 1 h incubation at 4 °C, 100 μL o-phenylenediamine dihydrochloride (OPD) (Thermo Fisher, Asse, Belgium) was added and incubated for 20 min in dark. One hundred microliters 0.5M H2SO4 was finally added to stop the reaction. OD492 and OD630 were measured by POLARstart Omega Plate Reader. OD492 − OD630 was calculated.

[2] = target: T1, CD4 (Homo sapiens, UniProt P01730); test: Binding competition with anti-CD4 antibodies; settings: antibodies OKT4 and RPA-T4, U373-CD4-CXCR4/CCR5 cells
T1 construct: host or cells: U373-CD4-CXCR4 and U373-CD4-CCR5 cells
Procedure: Binding competition between increasing concentrations of compounds and FITC-conjugated mouse anti-human CD4 clone RPA-4 (Biolegend, Amsterdam, Netherlands), PE-conjugated mouse anti-Human CXCR4 clone 12G5, and PE-conjugated mouse anti-human CCR5 clone 2D7 (BD Pharma, Aalst, Belgium) to U373-CD4-CXCR4 and U373-CD4-CCR5 cells was first tested by flow cytometry (FACSCanto). […] After 1 h of incubation at 4 °C, cells were washed with FACS buffer (1% bovine serum albumin, 0.1% N3Na in PBS, Sigma), and Mean Fluorescence Intensity (MFI) was measured. […] Internalization was stopped after 30 min by addition of NaN3 (0.1%) on ice. Cells were stained with anti-human CXCR4 clone 4G10 (BD, Belgium) or anti-human CCR5 (CD195) clone T21/8, (eBioscience, Asse, Belgium), Near-IR fluorescent reactive dye during 1 h at 4 °C, washed with FACS buffer, and a secondary PE-conjugated goat anti-mouse antibody (Jackson ImmunoResearch, West Grove, PA, USA).

[3] = test system: Herpes simplex virus-1 TK KOS ACV; test: Broad spectrum antiviral activity, HEL cells; assay type: cell-based; settings: Human alphaherpesvirus 1, HEL
[4] = test system: Influenza A/H1N1 A/Ned/378/05; test: Broad spectrum antiviral activity, MDCK cells; assay type: cell-based; settings: Influenza A virus
[5] = test system: Coxsackie virus B4; test: Broad spectrum antiviral activity, HeLa cells; assay type: cell-based; settings: Enterovirus B
[6] = test system: Coxsackie virus B4; test: Broad spectrum antiviral activity, vero cells; assay type: cell-based; settings: Enterovirus B
[7] = test system: sindbisvirus; test: Broad spectrum antiviral activity, vero cells; assay type: cell-based
[8] = test system: Punta toro virus; test: Broad spectrum antiviral activity, vero cells; assay type: cell-based
[9] = test system: Yellow fever virus; test: microbe, parasite or virus in culture; assay type: cell-based; settings: Vero
[10] = test system: Feline corona virus (FIPV); test: Broad spectrum antiviral activity, CRFK cells; assay type: cell-based; settings: Alphacoronavirus 1
[11] = test system: Feline herpes virus; test: Broad spectrum antiviral activity, CRFK cells; assay type: cell-based
[12] = test system: HIV-1 ADA-M; test: Dual chamber transmission assay, HeLa upper chamber / TZM-bl lower chamber; assay type: cell-based; settings: dual-chamber system, at IC50 concentration
Procedure: Dual chamber transmission assay was performed as previously described. HeLa cells were seeded into an upper chamber of a transwell plate (Sigma-Aldrich, Liège, Belgium), while TZM-bl cells were seeded in the lower chamber. Trans Epithelial Electric Resistance (TEER) was measured using Millicell-ERS Volt-Ohm Meter. HIV-1 ADA-M (200 pg) and drugs were added to the upper chamber after 4 days when TEER reached 150 Ohm/cm^2. 24 h after infection luciferase value of TZM-bl cells lysate was measured using the Luciferase System Kit and the POLARstar Omega Plate Reader. Data were analyzed using GraphPrism. The HIV-1 DC-SIGN transmission assay was performed as previously described.

[13] = test system: pseudotype virus pNL4.3ΔEnvLuc-HXB2; settings: multi-dosing time assay
[14] = test system: PBMCs
[15] = test system: HIV-1 IIIB; test: microbe, parasite or virus in culture; settings: Human immunodeficiency virus 1, IIIB, PBMC, 168 h, read-out: IC50 HIV-1 IIIB
[16] = test system: non-B HIV-1 primary clinical isolate #2; test: microbe, parasite or virus in culture; settings: Human immunodeficiency virus 1, PBMC, 168 h, read-out: IC50 non-B HIV-1 primary clinical isolate (second named)

Oc1cc(O)cc(/C=C/c2ccc(O)c(O)c2)c1 [piceatannol, trans-3,3′,4,5′-tetrahydroxystilbene]
Inhibition of gp120/CD4 binding [1]: did not
Inhibition of anti-CD4 antibodies binding to CD4 [2]: neither CE nor piceatannol did
IC50 [3]: 45.4 ± 4 µM
IC50 [4]: > 100 µM
IC50 [5]: > 100 µM
IC50 [6]: > 100 µM
IC50 [7]: > 100 µM
IC50 [8]: > 100 µM
IC50 [9]: > 100 µM
IC50 [10]: > 100 µM
IC50 [11]: > 100 µM
Decrease of HIV-1 infection [12]: 33%
HIV-1 infection of TZM-Bl cells relative to control (100) ([12]; 24 h post-infection): 66.9%
Inhibitory effect when added after infection ([13]; 2 h after spinoculation (post-infection)): did not find any effect
Inhibitory effect when pre-incubated with cells ([13]; 2 h pre-incubation on cells, HXB2 and BAL pseudotypes): inhibited HIV-1 infection at high concentration
Inhibitory effect when pre-incubated with the virus ([13]; 2 h pre-incubation on virus, HXB2 and BAL pseudotypes): not pre-incubated with the virus
Effect on expression of CD25 and CD69 [14]: did not have any effect
IC50 [15]: 24.2 ± 7.13 µM
IC50 [16]: 8.04 ± 3.07 µM
